# Assay results from US20230085307A1, “PYRIDAZINONE COMPOUND AND HERBICIDE” (NISSAN CHEMICAL CORPORATION, priority 2019, published 2023).
# Test system: Chinese sprangletop
# Test: Test Example 3: herbicidal effect by foliage application, Wagner pot (Table 18, symbol D)
# Format: in vivo, chinese sprangletop (Leptochloa chinensis)
# Conditions: 320 g/ha
# In short: (§1)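 Plants were sown in alluvial soil held under 0.1–0.5 cm standing water and grown 14 days in a greenhouse at 25–30 °C. An emulsifiable formulation, water-diluted to the set dose, was then sprayed onto the foliage, and effects were scored three weeks later using previously defined criteria.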
row,SMILES,herbicidal effect on Chinese sprangletop (D)
1,Cc1nn(C)c(=O)c(-c2c(-c3ccc(C(F)(F)F)cc3F)sc3c(Cl)cccc23)c1O [4-037],1 (Herbicidal rate of 5% or more and less than 20%)
2,Cc1ccccc1-c1sc2c(Cl)cccc2c1-c1c(O)c(C)nn(C)c1=O [4-060],1 (Herbicidal rate of 5% or more and less than 20%)
3,CCCCOc1cccc(-c2sc3c(Cl)cccc3c2-c2c(OC(=O)CCC)c(C)nn(C)c2=O)c1 [4-069],3 (Herbicidal rate of 40% or more and less than 70%)

# Test system: rice flat sedge
# Test: Test Example 3: herbicidal effect by foliage application, Wagner pot (Table 18, symbol E)
# Format: in vivo, rice flat sedge (Cyperus iria)
# Conditions: 320 g/ha
# In short: as §1
row,SMILES,herbicidal effect on rice flat sedge (E)
1,Cc1nn(C)c(=O)c(-c2c(-c3ccc(C(F)(F)F)cc3F)sc3c(Cl)cccc23)c1O [4-037],0 (Herbicidal rate of 5% or less (almost no effect))
2,Cc1ccccc1-c1sc2c(Cl)cccc2c1-c1c(O)c(C)nn(C)c1=O [4-060],3 (Herbicidal rate of 40% or more and less than 70%)
3,CCCCOc1cccc(-c2sc3c(Cl)cccc3c2-c2c(OC(=O)CCC)c(C)nn(C)c2=O)c1 [4-069],3 (Herbicidal rate of 40% or more and less than 70%)

# Test system: redroot pigweed
# Test: Test Example 5: herbicidal effect by foliage application, plastic box (Table 20, symbol N)
# Format: in vivo, redroot pigweed (Amaranthus retroflexus)
# Conditions: 320 g/ha, foliage application after 14-day growth, evaluated three weeks after application
# In short: (§2)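 Post-emergence foliar test in sterilized diluvial soil. Compound applied as water-diluted emulsion at a predetermined rate to 14-day-old plants; evaluation at three weeks.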
row,SMILES,herbicidal effect on N: redroot pigweed (evaluation grade 0-5)
1,Cc1nn(C)c(=O)c(-c2c(-c3ccc(C(F)(F)F)cc3F)sc3c(Cl)cccc23)c1O [4-037],5 (Herbicidal rate of 90% or more (almost completely withered))
2,Cc1ccccc1-c1sc2c(Cl)cccc2c1-c1c(O)c(C)nn(C)c1=O [4-060],2 (Herbicidal rate of 20% or more and less than 40%)
3,CCCCOc1cccc(-c2sc3c(Cl)cccc3c2-c2c(OC(=O)CCC)c(C)nn(C)c2=O)c1 [4-069],0 (Herbicidal rate of 5% or less (almost no effect))

# Test system: green foxtail
# Test: Test Example 5: herbicidal effect by foliage application, plastic box (Table 20, symbol G)
# Format: in vivo, green foxtail (Setaria viridis)
# Conditions: 320 g/ha, foliage application after 14-day growth, evaluated three weeks after application
# In short: as §2
row,SMILES,herbicidal effect on G: green foxtail (evaluation grade 0-5)
1,Cc1nn(C)c(=O)c(-c2c(-c3ccc(C(F)(F)F)cc3F)sc3c(Cl)cccc23)c1O [4-037],2 (Herbicidal rate of 20% or more and less than 40%)
2,Cc1ccccc1-c1sc2c(Cl)cccc2c1-c1c(O)c(C)nn(C)c1=O [4-060],0 (Herbicidal rate of 5% or less (almost no effect))
3,CCCCOc1cccc(-c2sc3c(Cl)cccc3c2-c2c(OC(=O)CCC)c(C)nn(C)c2=O)c1 [4-069],0 (Herbicidal rate of 5% or less (almost no effect))

# Test system: barnyard grass
# Test: Test Example 3: herbicidal effect by foliage application, Wagner pot (Table 18, symbol H)
# Format: in vivo, barnyard grass (Echinochloa crus-galli)
# Conditions: 320 g/ha
# In short: as §1
row,SMILES,herbicidal effect on barnyard grass (H)
1,Cc1nn(C)c(=O)c(-c2c(-c3ccc(C(F)(F)F)cc3F)sc3c(Cl)cccc23)c1O [4-037],3 (Herbicidal rate of 40% or more and less than 70%)
2,Cc1ccccc1-c1sc2c(Cl)cccc2c1-c1c(O)c(C)nn(C)c1=O [4-060],3 (Herbicidal rate of 40% or more and less than 70%)
3,CCCCOc1cccc(-c2sc3c(Cl)cccc3c2-c2c(OC(=O)CCC)c(C)nn(C)c2=O)c1 [4-069],4 (Herbicidal rate of 70% or more and less than 90%)

# Test system: Italian ryegrass
# Test: Test Example 5: herbicidal effect by foliage application, plastic box (Table 20, symbol K)
# Format: in vivo, Italian ryegrass (Lolium multiflorum)
# Conditions: 320 g/ha, foliage application after 14-day growth, evaluated three weeks after application
# In short: as §2
row,SMILES,herbicidal effect on K: Italian ryegrass (evaluation grade 0-5)
1,Cc1nn(C)c(=O)c(-c2c(-c3ccc(C(F)(F)F)cc3F)sc3c(Cl)cccc23)c1O [4-037],0 (Herbicidal rate of 5% or less (almost no effect))
2,Cc1ccccc1-c1sc2c(Cl)cccc2c1-c1c(O)c(C)nn(C)c1=O [4-060],0 (Herbicidal rate of 5% or less (almost no effect))
3,CCCCOc1cccc(-c2sc3c(Cl)cccc3c2-c2c(OC(=O)CCC)c(C)nn(C)c2=O)c1 [4-069],0 (Herbicidal rate of 5% or less (almost no effect))

# Test system: velvetleaf
# Test: Test Example 5: herbicidal effect by foliage application, plastic box (Table 20, symbol M)
# Format: in vivo, velvetleaf (Abutilon theophrasti)
# Conditions: 320 g/ha, foliage application after 14-day growth, evaluated three weeks after application
# In short: as §2
row,SMILES,herbicidal effect on M: velvetleaf (evaluation grade 0-5)
1,Cc1nn(C)c(=O)c(-c2c(-c3ccc(C(F)(F)F)cc3F)sc3c(Cl)cccc23)c1O [4-037],5 (Herbicidal rate of 90% or more (almost completely withered))
2,Cc1ccccc1-c1sc2c(Cl)cccc2c1-c1c(O)c(C)nn(C)c1=O [4-060],0 (Herbicidal rate of 5% or less (almost no effect))
3,CCCCOc1cccc(-c2sc3c(Cl)cccc3c2-c2c(OC(=O)CCC)c(C)nn(C)c2=O)c1 [4-069],0 (Herbicidal rate of 5% or less (almost no effect))

# Test system: lambsquarters
# Test: Test Example 5: herbicidal effect by foliage application, plastic box (Table 20, symbol O)
# Format: in vivo, lambsquarters (Chenopodium album)
# Conditions: 320 g/ha, foliage application after 14-day growth, evaluated three weeks after application
# In short: as §2
row,SMILES,herbicidal effect on O: lambsquarters (evaluation grade 0-5)
1,Cc1nn(C)c(=O)c(-c2c(-c3ccc(C(F)(F)F)cc3F)sc3c(Cl)cccc23)c1O [4-037],5 (Herbicidal rate of 90% or more (almost completely withered))
2,Cc1ccccc1-c1sc2c(Cl)cccc2c1-c1c(O)c(C)nn(C)c1=O [4-060],0 (Herbicidal rate of 5% or less (almost no effect))
3,CCCCOc1cccc(-c2sc3c(Cl)cccc3c2-c2c(OC(=O)CCC)c(C)nn(C)c2=O)c1 [4-069],0 (Herbicidal rate of 5% or less (almost no effect))

# Test system: blackgrass
# Test: Test Example 5: herbicidal effect by foliage application, plastic box (Table 20, symbol J)
# Format: in vivo, blackgrass (Alopecurus myosuroides)
# Conditions: 320 g/ha, foliage application after 14-day growth, evaluated three weeks after application
# In short: as §2
row,SMILES,herbicidal effect on J: blackgrass (evaluation grade 0-5)
1,Cc1nn(C)c(=O)c(-c2c(-c3ccc(C(F)(F)F)cc3F)sc3c(Cl)cccc23)c1O [4-037],0 (Herbicidal rate of 5% or less (almost no effect))
2,Cc1ccccc1-c1sc2c(Cl)cccc2c1-c1c(O)c(C)nn(C)c1=O [4-060],0 (Herbicidal rate of 5% or less (almost no effect))
3,CCCCOc1cccc(-c2sc3c(Cl)cccc3c2-c2c(OC(=O)CCC)c(C)nn(C)c2=O)c1 [4-069],0 (Herbicidal rate of 5% or less (almost no effect))

# Test system: persian speedwell
# Test: Test Example 5: herbicidal effect by foliage application, plastic box (Table 20, symbol R)
# Format: in vivo, Persian speedwell (Veronica persica)
# Conditions: 320 g/ha, foliage application after 14-day growth, evaluated three weeks after application
# In short: as §2
row,SMILES,herbicidal effect on R: persian speedwell (evaluation grade 0-5)
1,Cc1nn(C)c(=O)c(-c2c(-c3ccc(C(F)(F)F)cc3F)sc3c(Cl)cccc23)c1O [4-037],0 (Herbicidal rate of 5% or less (almost no effect))
2,Cc1ccccc1-c1sc2c(Cl)cccc2c1-c1c(O)c(C)nn(C)c1=O [4-060],0 (Herbicidal rate of 5% or less (almost no effect))
3,CCCCOc1cccc(-c2sc3c(Cl)cccc3c2-c2c(OC(=O)CCC)c(C)nn(C)c2=O)c1 [4-069],4 (Herbicidal rate of 70% or more and less than 90%)

# Test system: wild oat
# Test: Test Example 5: herbicidal effect by foliage application, plastic box (Table 20, symbol I)
# Format: in vivo, wild oat (Avena fatua)
# Conditions: 320 g/ha, foliage application after 14-day growth, evaluated three weeks after application
# In short: as §2
row,SMILES,herbicidal effect on I: wild oat (evaluation grade 0-5)
1,Cc1nn(C)c(=O)c(-c2c(-c3ccc(C(F)(F)F)cc3F)sc3c(Cl)cccc23)c1O [4-037],0 (Herbicidal rate of 5% or less (almost no effect))
2,Cc1ccccc1-c1sc2c(Cl)cccc2c1-c1c(O)c(C)nn(C)c1=O [4-060],0 (Herbicidal rate of 5% or less (almost no effect))
3,CCCCOc1cccc(-c2sc3c(Cl)cccc3c2-c2c(OC(=O)CCC)c(C)nn(C)c2=O)c1 [4-069],0 (Herbicidal rate of 5% or less (almost no effect))

# Test system: barnyard grass
# Test: Test Example 5: herbicidal effect by foliage application, plastic box (Table 20, symbol H)
# Format: in vivo, barnyard grass (Echinochloa crus-galli)
# Conditions: 320 g/ha, foliage application after 14-day growth, evaluated three weeks after application
# In short: as §2
row,SMILES,herbicidal effect on H: barnyard grass (evaluation grade 0-5)
1,Cc1nn(C)c(=O)c(-c2c(-c3ccc(C(F)(F)F)cc3F)sc3c(Cl)cccc23)c1O [4-037],0 (Herbicidal rate of 5% or less (almost no effect))
2,Cc1ccccc1-c1sc2c(Cl)cccc2c1-c1c(O)c(C)nn(C)c1=O [4-060],0 (Herbicidal rate of 5% or less (almost no effect))
3,CCCCOc1cccc(-c2sc3c(Cl)cccc3c2-c2c(OC(=O)CCC)c(C)nn(C)c2=O)c1 [4-069],0 (Herbicidal rate of 5% or less (almost no effect))

# Test system: windgrass
# Test: Test Example 5: herbicidal effect by foliage application, plastic box (Table 20, symbol L)
# Format: in vivo, windgrass (Apera spica-venti)
# Conditions: 320 g/ha, foliage application after 14-day growth, evaluated three weeks after application
# In short: as §2
row,SMILES,herbicidal effect on L: windgrass (evaluation grade 0-5)
1,Cc1nn(C)c(=O)c(-c2c(-c3ccc(C(F)(F)F)cc3F)sc3c(Cl)cccc23)c1O [4-037],5 (Herbicidal rate of 90% or more (almost completely withered))
2,Cc1ccccc1-c1sc2c(Cl)cccc2c1-c1c(O)c(C)nn(C)c1=O [4-060],4 (Herbicidal rate of 70% or more and less than 90%)
3,CCCCOc1cccc(-c2sc3c(Cl)cccc3c2-c2c(OC(=O)CCC)c(C)nn(C)c2=O)c1 [4-069],0 (Herbicidal rate of 5% or less (almost no effect))

# Test system: southern crabgrass
# Test: Test Example 5: herbicidal effect by foliage application, plastic box (Table 20, symbol F)
# Format: in vivo, southern crabgrass (Digitaria ciliaris)
# Conditions: 320 g/ha, foliage application after 14-day growth, evaluated three weeks after application
# In short: as §2
row,SMILES,herbicidal effect on F: southern crabgrass (evaluation grade 0-5)
1,Cc1nn(C)c(=O)c(-c2c(-c3ccc(C(F)(F)F)cc3F)sc3c(Cl)cccc23)c1O [4-037],0 (Herbicidal rate of 5% or less (almost no effect))
2,Cc1ccccc1-c1sc2c(Cl)cccc2c1-c1c(O)c(C)nn(C)c1=O [4-060],0 (Herbicidal rate of 5% or less (almost no effect))
3,CCCCOc1cccc(-c2sc3c(Cl)cccc3c2-c2c(OC(=O)CCC)c(C)nn(C)c2=O)c1 [4-069],0 (Herbicidal rate of 5% or less (almost no effect))

# Test system: chickweed
# Test: Test Example 5: herbicidal effect by foliage application, plastic box (Table 20, symbol P)
# Format: in vivo, common chickweed (Stellaria media)
# Conditions: 320 g/ha, foliage application after 14-day growth, evaluated three weeks after application
# In short: as §2
row,SMILES,herbicidal effect on P: chickweed (evaluation grade 0-5)
1,Cc1nn(C)c(=O)c(-c2c(-c3ccc(C(F)(F)F)cc3F)sc3c(Cl)cccc23)c1O [4-037],4 (Herbicidal rate of 70% or more and less than 90%)
2,Cc1ccccc1-c1sc2c(Cl)cccc2c1-c1c(O)c(C)nn(C)c1=O [4-060],4 (Herbicidal rate of 70% or more and less than 90%)
3,CCCCOc1cccc(-c2sc3c(Cl)cccc3c2-c2c(OC(=O)CCC)c(C)nn(C)c2=O)c1 [4-069],4 (Herbicidal rate of 70% or more and less than 90%)
